Literature values in patent US8298992B2, “Low odor, low volatility solvent for agricultural chemicals” (Huntsman Petrochemical LLC, priority 2006, dated 2012).

Conditions: solubility data available for a dimethyamide (comparison)

CCCCCCCCCC(=O)N(C)C [N,N-dimethyldecanamide]
Solubility in Water (wt %): 3.8% wt %
